These results are taken from patent US20230074252A1, “DOSAGES AND METHODS FOR TREATING PULMONARY ARTERIAL HYPERTENSION WITH RODATRISTAT” (Altavant Sciences GmbH, priority 2020, published 2023).

Entries after “also recorded” stand apart in the source; their conditions may differ. Where two headings read alike, the source gives them in different places.

Data set [1] has as its target CYP3A4 (Homo sapiens, UniProt P08684). Kind of data set: In vitro CYP substrate assessment (victim potential). The class given is in vitro ADME.
The next data set has as its target CYP2C9 (Homo sapiens, UniProt P11712). Described as above. The data set is classed as in vitro ADME.
In a further data set the target is T1, P-gp (Homo sapiens, UniProt P08183).
T1 construct: endogenous in cells; host or cells: Caco-2
Kind of data set: In vitro transporter substrate assessment. The class given is in vitro ADME. The source says: (§1) Consequently, the elimination of rodatristat into bile may be impacted by co-administration with agents that are BCRP inhibitors.

The target of another data set is T2, BCRP (Homo sapiens, UniProt Q9UNQ0).
T2 sequence (Q9UNQ0 1-655): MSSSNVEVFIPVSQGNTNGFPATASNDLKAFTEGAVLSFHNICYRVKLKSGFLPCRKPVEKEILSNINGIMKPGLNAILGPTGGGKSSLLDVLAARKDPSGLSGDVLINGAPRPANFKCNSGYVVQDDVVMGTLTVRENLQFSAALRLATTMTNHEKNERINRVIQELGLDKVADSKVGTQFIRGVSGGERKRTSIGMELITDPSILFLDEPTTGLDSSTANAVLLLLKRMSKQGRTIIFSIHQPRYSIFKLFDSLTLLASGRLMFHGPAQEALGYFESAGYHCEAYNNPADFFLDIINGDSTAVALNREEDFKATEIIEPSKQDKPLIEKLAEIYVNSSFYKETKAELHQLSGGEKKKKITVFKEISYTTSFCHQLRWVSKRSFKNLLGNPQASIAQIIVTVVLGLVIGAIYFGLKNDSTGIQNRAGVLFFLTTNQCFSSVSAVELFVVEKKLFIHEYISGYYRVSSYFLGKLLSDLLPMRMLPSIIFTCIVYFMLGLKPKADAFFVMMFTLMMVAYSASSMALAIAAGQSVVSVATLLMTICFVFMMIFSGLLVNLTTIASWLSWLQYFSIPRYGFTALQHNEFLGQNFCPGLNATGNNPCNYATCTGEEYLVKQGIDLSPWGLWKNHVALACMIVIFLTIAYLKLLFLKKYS
Put plainly: In vitro transporter substrate assessment. The class given is in vitro ADME.
From the text: as §1

The next data set addresses T3, CYP2B6 (Homo sapiens, UniProt P20813).
T3 sequence (P20813 1-491): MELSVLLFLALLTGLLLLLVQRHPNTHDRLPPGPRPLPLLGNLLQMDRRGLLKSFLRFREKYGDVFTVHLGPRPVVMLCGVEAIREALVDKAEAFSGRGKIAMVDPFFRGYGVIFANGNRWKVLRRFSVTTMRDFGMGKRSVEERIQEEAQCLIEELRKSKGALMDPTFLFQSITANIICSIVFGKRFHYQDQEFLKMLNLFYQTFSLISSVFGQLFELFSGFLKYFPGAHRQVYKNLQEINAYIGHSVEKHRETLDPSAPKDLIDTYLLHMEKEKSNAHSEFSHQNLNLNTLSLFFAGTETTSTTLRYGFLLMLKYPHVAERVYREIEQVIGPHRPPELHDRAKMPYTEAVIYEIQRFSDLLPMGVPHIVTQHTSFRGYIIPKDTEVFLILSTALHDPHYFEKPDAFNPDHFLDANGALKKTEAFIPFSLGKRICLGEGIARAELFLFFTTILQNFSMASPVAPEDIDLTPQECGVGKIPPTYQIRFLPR
Kind of data set: In vitro CYP substrate assessment (victim potential). The class given is in vitro ADME.

The test system of data set [2] is CYP3A4. Kind of data set: FDA guidance DDI risk assessment, perpetrator potential. Also on record: species or system human. The conditions noted are these: predicted @ 600 mg BID. The protocol: The potential for rodatristat ethyl or rodatristat to be perpetrators of drug-drug interactions was assessed across in vitro CYP and transporter studies (Tables 1-4). […] This analysis was performed to assess the potential for clinically meaningful DDIs as recommended in FDA Draft Guidance: “In Vitro Metabolism- and Transporter-Mediated Drug-Drug Interaction Studies Guidance for Industry”; October 2017 (FDA, 2017).
R1 and R3 values using free (non-protein bound) drug levels were calculated based on plasma protein binding (fraction bound, fb) of rodatristat ethyl (0.995) and rodatristat (0.991). The FDA Guidance is set forth In Vitro Metabolism- and Transporter-Mediated Drug-Drug Interaction Studies Guidance for Industry (2017). […] Parameters for the prediction are set forth below in Tables 5 and 6.

The next data set addresses CYP3A4/5 (Homo sapiens, UniProt P08684). Put plainly: Direct and time-dependent CYP inhibition, pooled human liver microsomes. The data set is classed as in vitro ADME. On the procedure: “mM^”=millimolar. CYP induction was evaluated using cultured human hepatocytes (from 3 donors) treated once daily for 3 days with RE/R concentrations to […].
The competitive inhibition of specific CYP isoforms was investigated for RVT-1201 and KAR5417 in human liver microsomes (HLM) (XT155056). Of the […] evaluated in vitro (CYP1A2, CYP2B6, CYP2C8, CYP2C9, CYP2D6, CYP3A4, CYP3A5), RVT-1201 IC50 estimates were determined for CYP2B6, CYP2C8 and CYP3A4 only. […] For each IC50 estimate, substrate concentration and Km were used to estimate RVT-1201 and KAR5417 Ki.
In general terms: Liver microsomes are a subcellular fraction often used to study metabolism.

The next data set deals with T4, CYP1A2 (Homo sapiens, UniProt P05177).
T4 sequence (P05177 1-516): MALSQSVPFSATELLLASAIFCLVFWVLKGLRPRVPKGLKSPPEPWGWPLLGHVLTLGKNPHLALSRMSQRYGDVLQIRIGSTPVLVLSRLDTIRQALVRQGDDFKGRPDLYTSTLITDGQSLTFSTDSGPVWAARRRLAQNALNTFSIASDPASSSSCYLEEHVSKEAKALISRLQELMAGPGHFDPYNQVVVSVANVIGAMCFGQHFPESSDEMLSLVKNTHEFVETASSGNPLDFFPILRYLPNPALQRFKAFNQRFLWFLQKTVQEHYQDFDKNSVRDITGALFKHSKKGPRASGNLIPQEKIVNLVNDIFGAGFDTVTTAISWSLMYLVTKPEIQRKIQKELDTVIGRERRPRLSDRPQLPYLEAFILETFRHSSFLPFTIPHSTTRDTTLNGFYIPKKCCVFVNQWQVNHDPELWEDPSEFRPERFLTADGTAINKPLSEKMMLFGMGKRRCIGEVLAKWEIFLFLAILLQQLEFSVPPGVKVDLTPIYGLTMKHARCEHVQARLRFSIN
Put plainly: In vitro CYP substrate assessment (victim potential). The data set is classed as in vitro ADME.

Another data set has as its target MRP2 (Homo sapiens, UniProt Q92887). Put plainly: Transporter inhibition, in vitro. Conditions: for Potential for interaction? (transporter inhibitor), MRP2: predicted @ 600 mg BID. The data set is classed as in vitro ADME.
Setting [3] is: predicted @ 600 mg BID, testosterone.

Sequence of CYP3A4/5 (P08684 2-503): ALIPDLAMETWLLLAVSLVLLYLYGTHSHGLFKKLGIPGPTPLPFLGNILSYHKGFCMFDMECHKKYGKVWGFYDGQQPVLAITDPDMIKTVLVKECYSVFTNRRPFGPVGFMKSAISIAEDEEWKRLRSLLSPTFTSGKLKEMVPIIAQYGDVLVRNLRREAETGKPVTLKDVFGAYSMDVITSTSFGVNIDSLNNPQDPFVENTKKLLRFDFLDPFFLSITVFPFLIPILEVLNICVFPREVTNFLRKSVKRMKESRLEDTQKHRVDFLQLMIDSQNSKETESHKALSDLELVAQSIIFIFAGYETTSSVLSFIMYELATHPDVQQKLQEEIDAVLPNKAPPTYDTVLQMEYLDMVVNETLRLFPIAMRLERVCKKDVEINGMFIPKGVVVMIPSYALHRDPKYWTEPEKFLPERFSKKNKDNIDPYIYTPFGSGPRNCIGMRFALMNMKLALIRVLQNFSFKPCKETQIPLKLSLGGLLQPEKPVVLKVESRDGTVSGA
T1 sequence (P08183 whole entry): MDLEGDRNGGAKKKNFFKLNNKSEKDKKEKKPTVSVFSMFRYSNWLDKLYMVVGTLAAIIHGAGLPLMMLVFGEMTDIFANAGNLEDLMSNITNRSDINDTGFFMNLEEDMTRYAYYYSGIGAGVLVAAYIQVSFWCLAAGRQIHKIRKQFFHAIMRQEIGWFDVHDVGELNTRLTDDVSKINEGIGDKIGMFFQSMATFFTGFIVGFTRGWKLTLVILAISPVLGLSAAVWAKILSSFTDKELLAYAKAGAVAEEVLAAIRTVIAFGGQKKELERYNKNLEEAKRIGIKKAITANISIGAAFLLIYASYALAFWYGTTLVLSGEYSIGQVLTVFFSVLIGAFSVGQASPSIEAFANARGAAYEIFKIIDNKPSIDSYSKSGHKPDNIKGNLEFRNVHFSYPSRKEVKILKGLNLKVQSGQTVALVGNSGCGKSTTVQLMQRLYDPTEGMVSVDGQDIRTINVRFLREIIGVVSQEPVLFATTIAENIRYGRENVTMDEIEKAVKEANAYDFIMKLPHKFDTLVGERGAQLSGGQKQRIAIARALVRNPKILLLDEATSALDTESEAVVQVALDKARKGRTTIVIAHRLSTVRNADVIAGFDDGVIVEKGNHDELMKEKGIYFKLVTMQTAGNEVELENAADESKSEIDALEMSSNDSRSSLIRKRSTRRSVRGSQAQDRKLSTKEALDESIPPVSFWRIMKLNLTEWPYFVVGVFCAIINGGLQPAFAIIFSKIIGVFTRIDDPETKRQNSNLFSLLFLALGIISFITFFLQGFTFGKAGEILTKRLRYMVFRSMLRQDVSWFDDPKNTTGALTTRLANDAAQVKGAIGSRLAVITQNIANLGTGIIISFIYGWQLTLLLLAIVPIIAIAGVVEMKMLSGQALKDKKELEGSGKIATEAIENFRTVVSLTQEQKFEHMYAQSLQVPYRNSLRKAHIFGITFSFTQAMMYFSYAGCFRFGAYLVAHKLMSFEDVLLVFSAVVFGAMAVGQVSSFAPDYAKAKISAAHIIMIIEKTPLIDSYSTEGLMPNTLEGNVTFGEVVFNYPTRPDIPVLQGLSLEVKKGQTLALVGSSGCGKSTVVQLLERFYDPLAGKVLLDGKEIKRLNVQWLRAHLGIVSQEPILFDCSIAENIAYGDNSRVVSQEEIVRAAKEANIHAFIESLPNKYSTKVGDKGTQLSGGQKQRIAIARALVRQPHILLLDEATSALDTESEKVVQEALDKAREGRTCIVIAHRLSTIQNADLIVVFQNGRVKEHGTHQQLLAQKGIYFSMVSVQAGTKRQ
Sequence of MRP2 (Q92887 whole entry): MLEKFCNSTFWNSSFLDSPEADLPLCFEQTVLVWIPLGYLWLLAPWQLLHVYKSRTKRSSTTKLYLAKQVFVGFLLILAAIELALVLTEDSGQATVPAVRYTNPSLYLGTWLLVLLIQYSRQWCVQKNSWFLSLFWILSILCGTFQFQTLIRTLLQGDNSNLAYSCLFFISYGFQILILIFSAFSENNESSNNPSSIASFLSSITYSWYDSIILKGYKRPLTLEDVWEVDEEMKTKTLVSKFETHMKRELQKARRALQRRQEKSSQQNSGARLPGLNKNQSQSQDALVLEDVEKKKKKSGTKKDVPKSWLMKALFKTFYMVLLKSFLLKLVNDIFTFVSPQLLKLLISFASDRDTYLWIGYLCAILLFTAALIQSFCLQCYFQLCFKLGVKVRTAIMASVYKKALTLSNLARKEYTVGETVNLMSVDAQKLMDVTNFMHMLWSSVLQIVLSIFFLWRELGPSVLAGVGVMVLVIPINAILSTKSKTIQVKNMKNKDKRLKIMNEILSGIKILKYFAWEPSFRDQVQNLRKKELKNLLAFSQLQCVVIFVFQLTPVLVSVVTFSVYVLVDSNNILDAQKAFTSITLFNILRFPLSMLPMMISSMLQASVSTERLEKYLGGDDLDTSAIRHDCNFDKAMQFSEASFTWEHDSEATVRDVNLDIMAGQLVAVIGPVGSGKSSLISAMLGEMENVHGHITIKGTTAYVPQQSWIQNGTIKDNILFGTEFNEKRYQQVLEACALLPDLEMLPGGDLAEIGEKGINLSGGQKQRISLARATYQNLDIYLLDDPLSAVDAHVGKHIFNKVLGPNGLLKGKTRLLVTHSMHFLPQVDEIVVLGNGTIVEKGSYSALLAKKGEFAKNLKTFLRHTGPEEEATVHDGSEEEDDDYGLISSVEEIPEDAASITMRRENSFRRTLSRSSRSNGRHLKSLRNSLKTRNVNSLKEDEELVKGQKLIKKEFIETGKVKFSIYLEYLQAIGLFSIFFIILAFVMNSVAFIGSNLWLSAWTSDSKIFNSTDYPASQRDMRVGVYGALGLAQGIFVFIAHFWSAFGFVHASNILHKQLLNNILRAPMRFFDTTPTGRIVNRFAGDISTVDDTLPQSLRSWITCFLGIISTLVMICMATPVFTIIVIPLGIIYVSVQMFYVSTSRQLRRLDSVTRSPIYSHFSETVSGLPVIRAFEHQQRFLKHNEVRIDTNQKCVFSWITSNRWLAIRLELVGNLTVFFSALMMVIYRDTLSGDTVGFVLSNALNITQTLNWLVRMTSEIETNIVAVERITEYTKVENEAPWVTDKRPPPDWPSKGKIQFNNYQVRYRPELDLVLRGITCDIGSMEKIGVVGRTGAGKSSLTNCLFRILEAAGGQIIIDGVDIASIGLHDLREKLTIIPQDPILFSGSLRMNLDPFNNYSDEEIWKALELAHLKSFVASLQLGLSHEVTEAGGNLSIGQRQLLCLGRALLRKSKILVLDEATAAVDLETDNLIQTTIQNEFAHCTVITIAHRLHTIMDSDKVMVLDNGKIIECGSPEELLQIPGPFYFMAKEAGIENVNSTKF
Sequence of CYP2C9 (P11712 whole entry): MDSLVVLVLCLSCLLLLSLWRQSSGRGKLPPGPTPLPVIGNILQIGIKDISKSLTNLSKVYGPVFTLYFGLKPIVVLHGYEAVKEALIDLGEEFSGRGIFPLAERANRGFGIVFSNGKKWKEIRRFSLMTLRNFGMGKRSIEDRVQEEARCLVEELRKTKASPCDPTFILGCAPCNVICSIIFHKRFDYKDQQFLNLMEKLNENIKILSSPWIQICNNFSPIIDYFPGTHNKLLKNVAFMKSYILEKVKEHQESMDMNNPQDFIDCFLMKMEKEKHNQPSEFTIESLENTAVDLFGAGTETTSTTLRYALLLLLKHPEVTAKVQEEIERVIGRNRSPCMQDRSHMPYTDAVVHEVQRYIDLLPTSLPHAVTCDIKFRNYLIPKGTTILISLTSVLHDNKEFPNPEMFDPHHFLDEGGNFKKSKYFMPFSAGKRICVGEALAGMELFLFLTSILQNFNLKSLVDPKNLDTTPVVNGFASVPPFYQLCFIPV
Sequence of CYP3A4 (Homo sapiens, UniProt P08684) (P08684 whole entry): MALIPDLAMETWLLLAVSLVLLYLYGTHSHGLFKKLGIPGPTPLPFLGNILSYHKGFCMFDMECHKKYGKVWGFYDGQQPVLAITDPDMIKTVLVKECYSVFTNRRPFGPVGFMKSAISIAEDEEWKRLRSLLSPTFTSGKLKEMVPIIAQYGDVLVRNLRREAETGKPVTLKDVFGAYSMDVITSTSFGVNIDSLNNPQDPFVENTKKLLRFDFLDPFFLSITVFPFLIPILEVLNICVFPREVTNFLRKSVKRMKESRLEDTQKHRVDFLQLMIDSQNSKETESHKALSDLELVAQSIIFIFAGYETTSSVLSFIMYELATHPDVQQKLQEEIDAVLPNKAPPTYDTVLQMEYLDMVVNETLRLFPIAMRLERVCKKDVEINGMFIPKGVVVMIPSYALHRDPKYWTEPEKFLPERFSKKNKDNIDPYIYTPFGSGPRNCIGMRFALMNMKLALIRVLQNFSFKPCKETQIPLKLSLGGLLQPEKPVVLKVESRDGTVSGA

Take `CCOC(=O)[C@@H]1CC2(CCN(c3cc(O[C@H](c4ccc(Cl)cc4-c4ccccc4)C(F)(F)F)nc(N)n3)CC2)CN1` [Rodatristat ethyl, (S)-ethyl 8-(2-amino-6-((R)-1-(5-chloro-[1,1′-biphenyl]-2-yl)-2,2,2-trifluoroethoxy)pyrimidin-4-yl)-2,8-diazaspiro[4.5]decane-3-carboxylate]: at CYP3A4 [1], the “In vitro substrate? CYP3A4” value is on record as “No”. Moreover, the “In vitro substrate? CYP2C9” value on CYP2C9 is listed as “No”. At P-gp, the “In vitro substrate? P-gp” value is “not a substrate; also recorded: not likely”. Further, the “In vitro substrate? BCRP” value at BCRP is on record as “not a substrate; also recorded: not likely”. Moreover, the “In vitro substrate? CYP2B6” value on CYP2B6 is reported as “No”. The “Potential for interaction (perpetrator), CYP3A4” value in the data set on CYP3A4 [2] is listed as “Yes”. Further, the IC50 on CYP3A4/5 (human, pooled human liver microsomes, probe midazolam (1′ hydroxylation), midazolam 1′ hydroxylation, read-out: In vitro IC50, direct inhibition, CYP3A4) was found to be 13 µM. Further, at CYP3A4/5 (human, pooled human liver microsomes, probe testosterone (6β hydroxylation), testosterone 6β hydroxylation, read-out: In vitro IC50, direct inhibition, CYP3A4 (T)), the IC50 stood at 23 µM. In addition, on CYP3A4/5 (setting [3]), the “Calculated R1 Value, CYP3A4 (T)” value is given as less than 1.02 and the “R1gut, CYP3A4 (T)” value is “R1gut = 355”. In addition, on CYP1A2, the “In vitro substrate? CYP1A2” value was “No”. Besides, the “Potential for interaction? (transporter inhibitor), MRP2” value on MRP2 is on record as “No”.

The term inhibition denotes the share of the control response that was lost under treatment. `Nc1nc(O[C@H](c2ccc(Cl)cc2-c2ccccc2)C(F)(F)F)cc(N2CCC3(CC2)CN[C@H](C(=O)O)C3)n1` [Rodatristat, (S)-8-(2-amino-6-((R)-1-(5-chloro-[1,1′-biphenyl]-2-yl)-2,2,2-trifluoroeth-oxy)pyrimidin-4-yl)-2,8-diazaspiro[4.5]decane-3-carboxylic acid]: the “In vitro substrate? CYP3A4” value at CYP3A4 [1] is listed as “No”. On CYP2C9, the “In vitro substrate? CYP2C9” value is given as “No”. Moreover, the “In vitro substrate? P-gp” value at P-gp is “potential substrate”. On BCRP, the “In vitro substrate? BCRP” value was “potential substrate”. The “In vitro substrate? CYP2B6” value at CYP2B6 is “No”. The “Potential for interaction (perpetrator), CYP3A4” value with CYP3A4 [2] is recorded as “Yes”. Moreover, the inhibition at 30 µM against CYP3A4/5 (human, pooled human liver microsomes, 30 μM, range given across CYPs 2B6, 2C9 and 3A4/5) is 27 to 45%; on MRP2 (nominal 30 μM), 25%. Further, the IC50 at CYP3A4/5 (human, pooled human liver microsomes, probe substrate not stated, read-out: IC50, CYP3A4/5) is more than 30 µM. In addition, on CYP1A2, the “In vitro substrate? CYP1A2” value is “No”. At MRP2, the “Potential for interaction? (transporter inhibitor), MRP2” value is “No^a”.
